Molecules are shown by their SMILES. Like-named read-outs stand apart in the source and are kept apart here. Where only a bound is given, the exact number is not on record here.

Experiment [1] addresses TNF (Homo sapiens, UniProt P01375). Briefly: TNF FP Assay. The format is binding. To be noted: TNF 20 nM, 25° C., 2 hours. The protocol: TNF (20 nM) and test compound in 47 mM HEPES pH 6.5, 47 mM NaCl, 0.9 mM EDTA, 0.007% Triton X-100 were incubated at 25° C. for 2 hours. Fluorescence data was read with an Envision and plotted versus Compound concentration and fit to a single-site binding model.

The target of experiment [2] is T1, ASGP receptor (biotinylated ASGPR) (Homo sapiens, UniProt P07306).
T1 construct: biotin (biotinylated)
T1 sequence (P07306 1-291): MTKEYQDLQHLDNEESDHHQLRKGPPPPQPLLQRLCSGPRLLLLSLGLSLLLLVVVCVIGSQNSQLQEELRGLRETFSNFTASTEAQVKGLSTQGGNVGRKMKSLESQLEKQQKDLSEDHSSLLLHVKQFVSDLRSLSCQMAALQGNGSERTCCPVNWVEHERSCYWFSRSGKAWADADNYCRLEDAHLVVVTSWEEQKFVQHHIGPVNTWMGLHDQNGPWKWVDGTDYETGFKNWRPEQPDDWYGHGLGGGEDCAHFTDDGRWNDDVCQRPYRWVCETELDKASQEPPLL
Format: binding. To be noted: SPR; Table 2; read-out: ASGPR SPR Binding KD.

Experiment [3] has as its target T2, ASGPR (Homo sapiens, UniProt P07306).
T2 construct: biotin (biotinylated)
T2 sequence (P07306 1-291): T1 sequence (P07306 1-291)
As to the kind of experiment: ASGPR SPR binding. (Surface plasmon resonance follows binding to a sensor surface in real time, without labels.)

The target of experiment [4] is T3, ASGPR receptor on HepG2 cells (ternary complex with AF488-labeled antibody) (Homo sapiens, UniProt P07306).
T3 construct: host or cells: HepG2
T3 sequence (P07306 1-291): T1 sequence (P07306 1-291)
T3 sequence (P07307 1-311 partner): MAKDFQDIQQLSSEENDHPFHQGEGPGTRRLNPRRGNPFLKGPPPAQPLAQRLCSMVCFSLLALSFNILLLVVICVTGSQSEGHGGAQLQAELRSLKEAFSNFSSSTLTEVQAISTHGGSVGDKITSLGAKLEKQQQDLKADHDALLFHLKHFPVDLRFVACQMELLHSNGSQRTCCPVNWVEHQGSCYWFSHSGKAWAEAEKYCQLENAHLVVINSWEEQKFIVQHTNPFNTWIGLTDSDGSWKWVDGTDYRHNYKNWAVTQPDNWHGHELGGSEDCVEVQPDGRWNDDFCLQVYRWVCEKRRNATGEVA
Briefly: Ternary complex formation assay (flow cytometry, cell-associated AF488 fluorescence). The format is cell-based. To be noted: 100 nM AF488-labeled antibody, 1 hour at 4° C. (In flow cytometry, cells or beads pass a laser one at a time.)

Experiment [5] has as its system HepG2 cells. Briefly: Cellular uptake assay (high-content imaging). The format is cell-based, human. Conditions: Homo sapiens, 100 nM AF488-labeled antibody, 6 hours at 37° C. The text has this:
The cellular uptake assay is designed to measure compound-mediated cellular uptake of fluorescently labeled antibody following ternary complex formation with the ASGPR receptor and endocytosis of the entire complex into cells. The optimal concentration of compound will result in the maximum number of cells with intracellular antibody and is represented as the peak ratio of antibody-positive cells over the total number of cells. As with the ternary complex formation assay, too much or too little compound will result in suboptimal complex formation and fewer cells will have measurable intracellular fluorescence.
Human IgG (Sigma-Aldrich, 14506) was covalently labeled with Alexa Fluor 488 using the Alexa Fluor™ 488 Protein Labeling Kit (Thermo Fisher, A10235) following the manufacturer's instructions. HepG2 cells were plated in DMEM supplemented with 10% FBS at 5,000 cells per well in a 96-well microtiter plate and incubated for approximately 18 hours at 37° C./5% CO2. For studies using human IgG, 100 nM AF488-labeled human IgG antibodies and serial dilutions of IgG-based degrader (0.1% DMSO final concentration) were added to the cells and the mixture was incubated at 37° C. for 6 hours. For studies using DNP, 100 nM AF488-labeled DNP antibodies and serial dilutions of DNP-based degrader (0.1% DMSO final concentration) were added to the cells and the mixture was incubated at 37° C. for 6 hours. HepG2 cells were fixed in 100% methanol at −20° C. for 20 min, washed 3× with PBS, then stained with DAPI (Thermo, Cat #H3570). HepG2 cells were imaged for DAPI and Alexa Fluor 488 using the Operetta CLS, high-content analysis system (PerkinElmer). Data is presented as the ratio of the number of cells positive for hIgG or DNP (AF-488 fluorescence) over the total cell number (measured by DAPI).

For experiment [6], the target named is IgG. As to the kind of experiment: IgG SPR binding.
The mark [7] stands for this setting: Table 3, read-out: ASGPR SPR Binding KD.
Where [8] appears, read: Table 3, read-out: IgG SPR Binding KD.
The mark [9] stands for this setting: Table 3, class symbols, read-out: Ternary Complex EC50.
The mark [10] stands for this setting: Table 3, class symbols, read-out: Uptake Assay (EC50).

TNF, sequence (P01375 77-233 limits assumed): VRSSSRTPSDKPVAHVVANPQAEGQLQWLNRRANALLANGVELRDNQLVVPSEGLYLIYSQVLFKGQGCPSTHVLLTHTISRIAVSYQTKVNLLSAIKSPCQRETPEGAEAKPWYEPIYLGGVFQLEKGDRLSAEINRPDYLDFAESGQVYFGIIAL

As usually defined, the IC50 is the point on the concentration scale where inhibition reaches its midpoint. The Kd is the concentration at which binding is half-saturated. Consider `O=C(COc1ccc(CN2CCN(C[C@H]3OC[C@H](Nc4cncc(C(F)(F)F)n4)[C@@H](O)[C@H]3O)CC2)cc1)N1CCN(Cc2ccc(-c3c[nH]c4ccncc34)c(OCCc3ccc(-c4cccc5ccncc45)cc3)c2)CC1` [compound 4], for which the IC50 in experiment [1] (Table 2, numeric bound) is greater than 112 nM. Also, in experiment [2], the Kd was less than 100 nM.

For orientation: EC50 means the concentration at which the effect is half-maximal. For the compound `CC(C)C[C@@H]1NC(=O)[C@H](Cc2cnc[nH]2)NC(=O)[C@H](Cc2c[nH]c3ccccc23)NC(=O)[C@H](C)NC(=O)[C@@H]2CSSC[C@H](NC(=O)[C@H](Cc3c[nH]c4ccccc34)NC(=O)[C@H](C(C)C)NC(=O)[C@H](CC(C)C)NC(=O)[C@H](CCC(=O)O)NC(=O)CNC1=O)C(=O)N[C@@H]([C@@H](C)O)C(=O)N1CCC[C@@H]1C(=O)N1C[C@H](NC(=O)COCCOCC(=O)NC[C@H]3OC[C@H](Nc4nccc(C(F)(F)F)n4)[C@@H](O)[C@H]3O)C[C@H]1C(=O)N[C@@H](CC(=O)O)C(=O)N2` [compound 35], the dissociation constant Kd in experiment [3] (setting [7]) is greater than 1000 nM; in experiment [6] (setting [8]), less than 100 nM. For the same compound, the EC50 is greater than 10000 nM in experiment [4] (Table 3, numeric bounds, read-out: Ternary Complex EC50) and greater than 10000 nM in experiment [5] (Table 3, numeric bounds, read-out: Uptake Assay (EC50)).

The compound `O=C(CNC[C@H]1OC[C@H](Nc2cncc(C(F)(F)F)n2)[C@@H](O)[C@H]1O)NCCOCCOCCOCc1ccc(-c2cccc3ccncc23)c(OCCc2ccc(-c3cccc4ccncc34)cc2)c1` [compound 6] had an IC50 in experiment [1] (Table 2) of 100 to 500 nM.

With `CC1(C)C(=O)c2ccc(-c3cnc(N4CCN5C(=O)N(CCOCCNC(=O)c6ccc(C(=O)NC[C@H]7OC[C@H](Nc8cncc(C(F)(F)F)n8)[C@@H](O)[C@H]7O)cc6)C[C@@H]5C4)nc3)nc2N1Cc1cccnc1C#N` [compound 18], in experiment [1] (Table 2), the IC50 was greater than 1000 nM.

As for `CC(C)C[C@@H]1NC(=O)[C@H](Cc2cnc[nH]2)NC(=O)[C@H](Cc2c[nH]c3ccccc23)NC(=O)[C@H](C)NC(=O)[C@@H]2CSSC[C@H](NC(=O)[C@H](Cc3c[nH]c4ccccc34)NC(=O)[C@H](C(C)C)NC(=O)[C@H](CC(C)C)NC(=O)[C@H](CCC(=O)O)NC(=O)CNC1=O)C(=O)N[C@@H]([C@@H](C)O)C(=O)N1CCC[C@@H]1C(=O)N1C[C@H](NC(=O)CNC(COCCC(=O)NCCOCCOCCOCCOC[C@H]3OC[C@H](Nc4cncc(C(F)(F)F)n4)[C@@H](O)[C@H]3O)COCCC(=O)NCCOCCOCCOCCOC[C@H]3OC[C@H](Nc4cncc(C(F)(F)F)n4)[C@@H](O)[C@H]3O)C[C@H]1C(=O)N[C@@H](CC(=O)O)C(=O)N2` [compound 97], the dissociation constant Kd in experiment [3] (second table, read-out: ASGPR KD) was less than 100 nM; in experiment [6] (second table, read-out: IgG KD), less than 100 nM. In addition, the EC50 was less than 100 nM in experiment [4] (the 25th table, class symbols, read-out: TCF EC50) and less than 100 nM in experiment [5] (the 25th table, class symbols, read-out: Uptake EC50).

`CC(C)C[C@@H]1NC(=O)[C@H](Cc2cnc[nH]2)NC(=O)[C@H](Cc2c[nH]c3ccccc23)NC(=O)[C@H](C)NC(=O)[C@@H]2CSSC[C@H](NC(=O)[C@H](Cc3c[nH]c4ccccc34)NC(=O)[C@H](C(C)C)NC(=O)[C@H](CC(C)C)NC(=O)[C@H](CCC(=O)O)NC(=O)CNC1=O)C(=O)N[C@@H]([C@@H](C)O)C(=O)N1CCC[C@@H]1C(=O)N1C[C@@H](NC(=O)c3ccc(N4CCC(CN5CCN(C[C@H]6OC[C@H](Nc7cccc(C(F)(F)F)n7)[C@@H](O)[C@H]6O)CC5)CC4)cc3)C[C@H]1C(=O)N[C@@H](CC(=O)O)C(=O)N2` [compound 26]: the Kd in experiment [3] (setting [7]) and in experiment [6] (setting [8]) was less than 100 nM each time. Further, the EC50 in experiment [4] (setting [9]) and in experiment [5] (setting [10]) was less than 100 nM throughout.

As for `CC(C)C[C@@H]1NC(=O)[C@H](Cc2cnc[nH]2)NC(=O)[C@H](Cc2c[nH]c3ccccc23)NC(=O)[C@H](C)NC(=O)[C@@H]2CSSC[C@H](NC(=O)[C@H](Cc3c[nH]c4ccccc34)NC(=O)[C@H](C(C)C)NC(=O)[C@H](CC(C)C)NC(=O)[C@H](CCC(=O)O)NC(=O)CNC1=O)C(=O)N[C@@H]([C@@H](C)O)C(=O)N1CCC[C@@H]1C(=O)N1C[C@H](NC(=O)c3ccc(N4CCC(CN5CCN(C[C@H]6OC[C@H](Nc7ccnc(C(F)(F)F)n7)[C@@H](O)[C@H]6O)CC5)CC4)cc3)C[C@H]1C(=O)N[C@@H](CC(=O)O)C(=O)N2` [compound 32], the Kd in experiment [3] (setting [7]) and in experiment [6] (setting [8]) was less than 100 nM in each case. For the same compound, the EC50 in experiment [4] (setting [9]) and in experiment [5] (setting [10]) was less than 100 nM throughout.

On to `CC(C)C[C@@H]1NC(=O)[C@H](Cc2cnc[nH]2)NC(=O)[C@H](Cc2c[nH]c3ccccc23)NC(=O)[C@H](C)NC(=O)[C@@H]2CSSC[C@H](NC(=O)[C@H](Cc3c[nH]c4ccccc34)NC(=O)[C@H](C(C)C)NC(=O)[C@H](CC(C)C)NC(=O)[C@H](CCC(=O)O)NC(=O)CNC1=O)C(=O)N[C@@H]([C@@H](C)O)C(=O)N1CCC[C@@H]1C(=O)N1C[C@H](NC(=O)c3ccc(N4CCC(CN5CCN(C[C@H]6OC[C@H](Nc7nc(C(F)(F)F)ccc7F)[C@@H](O)[C@H]6O)CC5)CC4)cc3)C[C@H]1C(=O)N[C@@H](CC(=O)O)C(=O)N2` [compound 30], for which the Kd in experiment [3] (setting [7]) and in experiment [6] (setting [8]) was less than 100 nM throughout. Further, the EC50 in experiment [4] (setting [9]) and in experiment [5] (setting [10]) was 100 to 500 nM each time.

For the compound `CC(C)C[C@@H]1NC(=O)[C@H](Cc2cnc[nH]2)NC(=O)[C@H](Cc2c[nH]c3ccccc23)NC(=O)[C@H](C)NC(=O)[C@@H]2CSSC[C@H](NC(=O)[C@H](Cc3c[nH]c4ccccc34)NC(=O)[C@H](C(C)C)NC(=O)[C@H](CC(C)C)NC(=O)[C@H](CCC(=O)O)NC(=O)CNC1=O)C(=O)N[C@@H]([C@@H](C)O)C(=O)N1CCC[C@@H]1C(=O)N1C[C@@H](NC(=O)COCCOCC(=O)NC[C@H]3OC[C@H](Nc4nc(C(F)(F)F)ccc4F)[C@@H](O)[C@H]3O)C[C@H]1C(=O)N[C@@H](CC(=O)O)C(=O)N2` [compound 33], the values for the Kd in experiment [3] (setting [7]) and in experiment [6] (setting [8]) were 100 to 500 nM and less than 100 nM, respectively. Also, the EC50 in experiment [4] (setting [9]) and in experiment [5] (setting [10]) was less than 100 nM in each case.

`O=C(CCOCC(COCCC(=O)NCCOCCOCCOCCOC[C@H]1OC[C@H](Nc2cncc(C(F)(F)F)n2)[C@@H](O)[C@H]1O)NC(=O)COCCOCCOCCOCCOCC(=O)N1CCN(Cc2ccc(-c3c[nH]c4ccncc34)c(OCCc3ccc(-c4cccc5ccncc45)cc3)c2)CC1)NCCOCCOCCOCCOC[C@H]1OC[C@H](Nc2cncc(C(F)(F)F)n2)[C@@H](O)[C@H]1O` [compound 5]: the IC50 in experiment [1] (Table 2, numeric bound) was greater than 136 nM.

Consider `CC(C)C[C@@H]1NC(=O)[C@H](Cc2cnc[nH]2)NC(=O)[C@H](Cc2c[nH]c3ccccc23)NC(=O)[C@H](C)NC(=O)[C@@H]2CSSC[C@H](NC(=O)[C@H](Cc3c[nH]c4ccccc34)NC(=O)[C@H](C(C)C)NC(=O)[C@H](CC(C)C)NC(=O)[C@H](CCC(=O)O)NC(=O)CNC1=O)C(=O)N[C@@H]([C@@H](C)O)C(=O)N1CCC[C@@H]1C(=O)N1C[C@H](NC(=O)c3ccc(N4CCC(CN5CCN(C[C@H]6OC[C@H](Nc7cccc(C(F)(F)F)n7)[C@@H](O)[C@H]6O)CC5)CC4)cc3)C[C@H]1C(=O)N[C@@H](CC(=O)O)C(=O)N2` [compound 29], for which the Kd in experiment [3] (setting [7]) and in experiment [6] (setting [8]) was less than 100 nM each time. In addition, the figures for the EC50 in experiment [4] (setting [9]) and in experiment [5] (setting [10]) were less than 100 nM and 100 to 500 nM, respectively.

The record behind these values is patent US20260083851A1 (AVILAR THERAPEUTICS, INC., priority 2022, published 2026).
